Values belong to the compound of their own block, whether it stands above or below them.
Assays:
[1] = test system: dsDNA (ds-oligonucleotide, oligonucleotides 1 and 2) (DNA, duplex) AAATTAATATGTATTGTATATAAATTATT/AATAATTTATATACAATACATATTAATTT; assay: UV melting (260 nm); conditions: 0.1 M NaCl, 0.01 M MgCl2
[2] = test system: dsDNA (ds-oligonucleotide, oligonucleotides 1 and 2) (DNA, duplex) AAATTAATATGTATTGTATATAAATTATT/AATAATTTATATACAATACATATTAATTT; assay: circular dichroism; conditions: Na+ (TBS); TBS pH 7.4, 1 mM EDTA, 37 °C; 2.5 µM compound, 2.5 µM duplex

SMILES: CN(CCCNC(=O)c1cnc2ccccc2c1N)CCCNC(=O)c1cnc2ccccc2c1N
ΔTm ([1]; derived from two Tm (64.5 ± 0.71, control 64.97 ± 0.20), 15 µM, change called negligible): -0.47 °C

SMILES: CN(CCCNC=C1C(=O)Oc2ccccc2C1=O)CCCNC=C1C(=O)Oc2ccccc2C1=O
ΔTm ([1]; derived from two Tm (64.07 ± 0.14, control 64.97 ± 0.20), 15 µM, change called negligible): -0.90 °C

SMILES: Nc1c(C(=O)NCCCN2CCN(CCCNC(=O)c3cnc4ccccc4c3N)CC2)cnc2ccccc12
binding [2]: yes
ΔTm ([1]; derived from two Tm (70.7 ± 0.71, control 64.97 ± 0.20), text says 7, 15 µM, 0.1% DMSO): 5.73 °C

Continued, values first:

ΔTm ([1]; derived from two Tm (78.00 ± 0.00, control 64.97 ± 0.20), 100 µM): 13.03 °C
SMILES: Nc1c2ccccc2nc2ccccc12

ΔTm ([1]; derived from two Tm (64.02 ± 0.00, control 64.97 ± 0.20), 15 µM, change called negligible): -0.95 °C
SMILES: O=C1Oc2ccccc2C(=O)C1=CNCCCN1CCN(CCCNC=C2C(=O)Oc3ccccc3C2=O)CC1
